Here are results for seven compounds from ChEMBL document CHEMBL6127079, “Design and synthesis of spiro[pyrrolidine-3,3'-quinoline]-2,2'-dione derivatives as novel antifungal agents targeting chitin synthase” (Eur J Med Chem, 2024).

SMILES strings stand for the structures. In brackets after ≈: the same amount, converted by molar mass. *1 amine or outer side, *2 acyl side, *3 side chain or, on linkers, in order; H or OH if unused. Where a SMILES comes first, the peptide text is derived from it. Bridges are numbered along the chain shown (N, C = ends). [ ]: non-standard residue; d: D form. The star is where a group is joined. hTyr(3S-OH,4S-OH,3'-OSO3H) = N[C@H](C(=O)O)[C@H](O)[C@@H](O)c1ccc(O)c(OS(=O)(=O)O)c1; Orn(4R-OH,5R-OH) = O=C([C@H](C[C@@H](O)[C@@H](O)N[*:3])N[*:1])[*:2]; Pro(3S-OH,4S-Me) = C[C@H]1CN[C@H](C(=O)O)[C@H]1O; X1 = CCCCCOc1ccc(-c2cc(-c3ccc(C(=O)*)cc3)no2)cc1; Gln(3R-OH) = NC(=O)C[C@@H](O)[C@H](N)C(=O)O; Hyp = O=C(O)[C@@H]1C[C@@H](O)CN1

What is called MIC is the least concentration at which growth counts as inhibited. Usually IC50 stands for the concentration that gives 50% inhibition. One may read the inhibition as how much of the control response was suppressed.

The subject of assay [1] is Aspergillus flavus. The assay is described as follows: Antifungal activity against Aspergillus flavus ATCC 16870 assessed as inhibition of growth incubated for 24 hrs by two-fold serial dilution method. It counts as functional.
Assay [2] in a line: Inhibition of chitin synthase extracted from Candida tropicalis ATCC 750 using UDP-GlcNAc as substrate assessed as inhibition rate by TMB based microplate analyzer relative to control.
Assay [3] deals with Aspergillus fumigatus. The assay is described as follows: Antifungal activity against Aspergillus fumigatus GIMCC 3.19 assessed as inhibition of growth incubated for 24 hrs by two-fold serial dilution method. It counts as functional.
Assay [4] has as its system Candida tropicalis. The assay is described as follows: Inhibition of chitin synthase extracted from Candida tropicalis ATCC 750 using UDP-GlcNAc as substrate assessed as inhibition rate at 300 ug/ml by TMB based microplate analyzer relative to control. The following applies: dose 300.0 µg/ml.
Assay [5] concerns Cryptococcus neoformans. The assay is described as follows: Antifungal activity against Cryptococcus neoformans ATCC 32719 assessed as inhibition of growth incubated for 24 hrs by two-fold serial dilution method. It counts as functional.
Assay [6] deals with Candida albicans. The assay is described as follows: Antifungal activity against Candida albicans ATCC 76615 assessed as inhibition of growth incubated for 24 hrs by two-fold serial dilution method. It counts as functional.
In assay [7] the test system is Candida albicans. Description: Antifungal activity against micafungin-resistant Candida albicans ATCC 76615 assessed as inhibition of fungal growth incubated for 24 to 72 hrs. It counts as functional. As to conditions: time 24-72 hrs.
For assay [8], the system named is Aspergillus fumigatus. The assay is described as follows: Antifungal activity against fluconazole-resistant Aspergillus fumigatus GIMCC 3.19 assessed as inhibition of fungal growth incubated for 24 to 72 hrs. Type of assay: functional. The following applies: time 24-72 hrs.
Assay [9] concerns Aspergillus flavus. The assay is described as follows: Antifungal activity against Aspergillus flavus ATCC 16870 incubated for 24 hrs by half broth dilution based checkerboard method. It counts as functional. For orientation: In broth dilution the organism is exposed to a series of concentrations in liquid medium.
Assay [10] concerns Aspergillus flavus. The assay is described as follows: Antifungal activity against fluconazole-resistant Aspergillus flavus ATCC 16870 assessed as inhibition of fungal growth incubated for 24 to 72 hrs. It counts as functional. As to conditions: time 24-72 hrs.
The subject of assay [11] is Aspergillus fumigatus. Description: Antifungal activity against Aspergillus fumigatus GIMCC 3.19 incubated for 24 hrs by half broth dilution based checkerboard method. Type of assay: functional.
Assay [12] concerns Candida albicans. The assay is described as follows: Antifungal activity against fluconazole-resistant Candida albicans ATCC 76615 assessed as inhibition of fungal growth incubated for 24 to 72 hrs. Type of assay: functional. As to conditions: time 24-72 hrs.
Assay [13] relates to Candida albicans. Description: Antifungal activity against Candida albicans ATCC 76615 incubated for 24 hrs by half broth dilution based checkerboard method. It counts as functional.
Assay [14] relates to Cryptococcus neoformans. Description: Antifungal activity against Cryptococcus neoformans ATCC 32719 incubated for 24 hrs by half broth dilution based checkerboard method. It counts as functional.
In assay [15] the test system is Cryptococcus neoformans. Description: Antifungal activity against fluconazole-resistant Cryptococcus neoformans ATCC 32719 assessed as inhibition of fungal growth incubated for 24 to 72 hrs. Type of assay: functional. The following applies: time 24-72 hrs.

Take `Cc1ccc(NC(=O)C2CCN(CC(=O)Nc3ccc4c(c3)NC(=O)C3(CCNC3=O)C4)CC2)cc1` (racemic): the MIC in assay [1] was 64 µg/mL (≈ 131 µM); in assay [3], 128 µg/mL (≈ 261 µM); in [5], 32 µg/mL (≈ 65.4 µM); in assay [6] it was 32 µg/mL (≈ 65.4 µM). Also, the IC50 in assay [2] came to 286 µM. In [4], the inhibition turned out to be 45.1%.
Take `O=C(/C=C/C(=O)Nc1ccccc1Br)Nc1ccc2c(c1)NC(=O)C1(CCNC1=O)C2` (racemic): the MIC worked out at 32 µg/mL (≈ 66.2 µM) in assay [1], 32 µg/mL (≈ 66.2 µM) in assay [3], 16 µg/mL (≈ 33.1 µM) in [5] and 32 µg/mL (≈ 66.2 µM) in assay [6]. Moreover, the 50% inhibitory concentration (IC50) in assay [2] was 266 µM. Besides, the inhibition in [4] turned out to be 66.2%.
With `O=C(CN1CCC(C(=O)Nc2nccs2)CC1)Nc1ccc2c(c1)NC(=O)C1(CCNC1=O)C2` (racemic), the MIC was found to be 32 µg/mL (≈ 66.3 µM) in assay [1], 256 µg/mL (≈ 530 µM) in assay [3], 512 µg/mL (≈ 1060 µM) in [5] and 8 µg/mL (≈ 16.6 µM) in assay [6]. The IC50 in [2] was 157 µM. In addition, the inhibition in assay [4] is 73.9%.
Turning to `O=C(/C=C/C(=O)Nc1nccs1)Nc1ccc2c(c1)NC(=O)C1(CCNC1=O)C2` (racemic), the MIC came out at 64 µg/mL (≈ 156 µM) in assay [1], 32 µg/mL (≈ 77.8 µM) in [3], 32 µg/mL (≈ 77.8 µM) in assay [5] and 64 µg/mL (≈ 156 µM) in [6]. Further, the IC50 in assay [2] came out at 441 µM. Further, the inhibition in assay [4] turned out to be 55.8%.
On to `CCCCCOc1ccc(-c2cc(-c3ccc(C(=O)N[C@H]4C[C@@H](O)[C@@H](O)NC(=O)[C@@H]5[C@@H](O)[C@@H](C)CN5C(=O)[C@H]([C@H](O)CC(N)=O)NC(=O)[C@H]([C@H](O)[C@@H](O)c5ccc(O)c(OS(=O)(=O)O)c5)NC(=O)[C@@H]5C[C@@H](O)CN5C(=O)[C@H]([C@@H](C)O)NC4=O)cc3)no2)cc1` [MICAFUNGIN] (X1-[Orn(4R-OH,5R-OH)]T[Hyp][hTyr(3S-OH,4S-OH,3'-OSO3H)][Gln(3R-OH)][Pro(3S-OH,4S-Me)]; lactam 1-C), for which the minimal inhibitory concentration (MIC) in assay [7] worked out at 256 µg/mL (≈ 202 µM).
As for `OC(Cn1cncn1)(Cn1cncn1)c1ccc(F)cc1F` [FLUCONAZOLE], the minimal inhibitory concentration (MIC) in assay [8] was 256 µg/mL (≈ 836 µM); in assay [9] it was 4 µg/mL; in assay [10], 256 µg/mL (≈ 836 µM); in [1], 4 µg/mL (≈ 13.1 µM); in [11], 4 µg/mL; in assay [12], 256 µg/mL (≈ 836 µM). The MIC came out at 4 µg/mL (≈ 13.1 µM) in assay [3]; 8 µg/mL in [13]; 8 µg/mL (≈ 26.1 µM) in assay [5]; 8 µg/mL in [14]; 8 µg/mL (≈ 26.1 µM) in assay [6]; 256 µg/mL (≈ 836 µM) in [15].
In the case of `CC(C)NC(=O)/C=C/C(=O)Nc1ccc2c(c1)NC(=O)C1(CCNC1=O)C2` (racemic), the MIC was 256 µg/mL (≈ 691 µM) in assay [1], 64 µg/mL (≈ 173 µM) in assay [3], 128 µg/mL (≈ 346 µM) in assay [5] and 128 µg/mL (≈ 346 µM) in assay [6]. Further, in assay [4], the inhibition is 34.6%.
